Earlier results as cited in patent EP2535049A1 (Proyecto de Biomedicina Cima, S.L., priority 2011, dated 2012).

Settings: Kulkarni and Patil 2004; Forgue et al., 2006; cited from earlier work

CCCc1nc(C)c2c(=O)[nH]c(-c3cc(S(=O)(=O)N4CCN(CC)CC4)ccc3OCC)nn12 [vardenafil]
half-life in blood serum: 3.4 h
